Measured values taken from patent US20140315889A1, “HYDROXAMATE DERIVATIVES FOR HDAC INHIBITOR, AND THE PHARMACEUTICAL COMPOSITION COMPRISING THEREOF” (CHONG KUN DANG PHARMACEUTICAL CORP., priority 2011, published 2014).

Legend:
[1] = target: T1, human recombinant HDAC6 (Homo sapiens, UniProt Q9UBN7); assay: HDAC enzyme activity test, HDAC6; format: biochemical; conditions: Table 12; for Selectivity for HDAC6, HD1/HD6: ratio HDAC1 IC50 / HDAC6 IC50; for IC50: read-out: Inhibition ability (IC50) HDAC6
T1 construct: purchased Calibiochem Co. (so in the source) 382180
T1 sequence (Q9UBN7 1-1215): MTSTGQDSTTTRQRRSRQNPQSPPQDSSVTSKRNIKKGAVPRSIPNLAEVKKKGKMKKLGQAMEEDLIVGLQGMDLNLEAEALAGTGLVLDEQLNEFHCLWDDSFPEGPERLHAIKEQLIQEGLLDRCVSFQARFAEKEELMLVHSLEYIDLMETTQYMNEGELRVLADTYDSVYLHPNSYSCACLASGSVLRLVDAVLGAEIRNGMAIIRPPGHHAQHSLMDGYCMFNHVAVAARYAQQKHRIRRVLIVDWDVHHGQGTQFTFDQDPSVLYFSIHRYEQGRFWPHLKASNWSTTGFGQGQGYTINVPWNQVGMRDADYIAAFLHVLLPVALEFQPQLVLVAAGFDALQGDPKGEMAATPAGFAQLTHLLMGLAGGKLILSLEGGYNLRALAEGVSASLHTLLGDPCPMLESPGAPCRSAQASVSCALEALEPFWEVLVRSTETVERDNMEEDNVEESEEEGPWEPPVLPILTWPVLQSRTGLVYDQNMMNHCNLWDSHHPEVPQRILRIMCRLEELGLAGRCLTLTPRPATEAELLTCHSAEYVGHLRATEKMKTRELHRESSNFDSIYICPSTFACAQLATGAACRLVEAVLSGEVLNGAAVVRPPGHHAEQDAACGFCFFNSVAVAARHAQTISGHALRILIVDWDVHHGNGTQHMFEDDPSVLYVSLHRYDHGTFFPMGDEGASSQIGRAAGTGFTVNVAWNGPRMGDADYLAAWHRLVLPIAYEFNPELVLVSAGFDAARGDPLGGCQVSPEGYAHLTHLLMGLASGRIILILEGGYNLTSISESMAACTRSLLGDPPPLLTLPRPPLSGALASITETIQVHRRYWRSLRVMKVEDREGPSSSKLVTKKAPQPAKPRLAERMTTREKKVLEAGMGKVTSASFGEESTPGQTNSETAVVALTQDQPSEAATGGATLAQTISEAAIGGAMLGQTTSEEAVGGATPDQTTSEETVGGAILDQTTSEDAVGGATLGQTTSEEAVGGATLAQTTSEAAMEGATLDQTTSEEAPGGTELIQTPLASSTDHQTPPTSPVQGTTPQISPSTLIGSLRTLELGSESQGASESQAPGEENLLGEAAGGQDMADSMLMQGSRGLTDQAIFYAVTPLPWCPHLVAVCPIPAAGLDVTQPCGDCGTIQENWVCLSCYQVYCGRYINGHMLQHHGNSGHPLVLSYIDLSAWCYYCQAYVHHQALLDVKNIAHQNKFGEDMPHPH
Protocol: (§1) Then, 0.3 μg of enzyme and 10 μM of substrate per well were added, reacted at 30° C. for 60 minutes. Thereto, Fluor de Lys® Developer II (BML-KI176) was added and reacted for 30 minutes. […] From the data, the respective IC50 were calculated by GraphPad Prism 4.0 program.

[2] = target: T2, Human recombinant HDAC1 (Homo sapiens, UniProt Q13547); assay: HDAC enzyme activity test, HDAC1; format: biochemical; conditions: Table 12; read-out: Inhibition ability (IC50) HDAC1
T2 construct: purchased Enzo Life Science Co. (named for the kit; assigned to the enzyme from the BML- catalogue prefix) BML-SE456
T2 sequence (Q13547 whole entry): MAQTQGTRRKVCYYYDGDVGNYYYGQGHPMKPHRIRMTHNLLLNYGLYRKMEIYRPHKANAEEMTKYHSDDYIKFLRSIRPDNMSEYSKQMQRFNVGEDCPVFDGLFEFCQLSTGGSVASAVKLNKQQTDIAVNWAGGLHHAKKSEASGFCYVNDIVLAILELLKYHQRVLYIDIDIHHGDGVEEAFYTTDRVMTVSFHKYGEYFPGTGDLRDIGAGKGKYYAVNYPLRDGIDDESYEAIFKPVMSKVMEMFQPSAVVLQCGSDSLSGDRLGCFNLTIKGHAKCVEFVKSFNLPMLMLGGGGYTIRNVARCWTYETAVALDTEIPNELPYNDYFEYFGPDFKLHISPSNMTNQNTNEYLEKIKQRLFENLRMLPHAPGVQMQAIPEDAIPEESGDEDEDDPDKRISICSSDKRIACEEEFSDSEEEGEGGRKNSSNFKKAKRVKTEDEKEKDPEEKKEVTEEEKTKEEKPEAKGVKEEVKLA
Protocol: as §1

Compound | Selectivity for HDAC6, HD1/HD6 [1] | IC50 [1] [nM] | IC50 [2] [µM]
O=C(CCCCCn1c2c(c3ccccc31)C(=O)C(CN1CCC(F)(F)C1)CC2)NO (stereo not drawn) [Compound 204, 6-(3-((3,3-difluoropyrrolidin-1-yl)methyl)-4-oxo-1,2,3,4-tetrahydrocarbazol-9-yl)-N-hydroxyhexanamide] | 40 | 48.7 | 1.95
CN1CCN(CC2CCc3c(c4ccccc4n3CCCCCC(=O)NO)C2=O)CC1 (stereo not drawn) [Compound 205, N-hydroxy-6-(3-((4-methylpiperazin-1-yl)methyl)-4-oxo-1,2,3,4-tetrahydrocarbazol-9-yl)hexanamide] | 69 | 46 | 3.17
CCN1CCN(CC2CCc3c(c4ccccc4n3CCCCCC(=O)NO)C2=O)CC1 (stereo not drawn) [Compound 206, 6-(3-((4-ethylpiperazin-1-yl)methyl)-4-oxo-1,2,3,4-tetrahydrocarbazol-9-yl)-N-hydroxyhexanamide] | 43.5 | 27.5 | 1.2
CC1(C)Cc2c(c3cc(F)ccc3n2Cc2ccc(C(=O)NO)cc2)C(=O)C1CN1CCOCC1 (stereo not drawn) [Compound 207, 4-((6-fluoro-2,2-dimethyl-3-(morpholinomethyl)-4-oxo-1,2,3,4-tetrahydrocarbazol-9-yl)methyl)-N-hydroxybenzamide] | 41.5 | 43.9 | 1.82
CCCCN1CCN(CC2CCc3c(c4ccccc4n3CCCCCC(=O)NO)C2=O)CC1 (stereo not drawn) [Compound 208, 6-(3-((4-butylpiperazin-1-yl)methyl)-4-oxo-1,2,3,4-tetrahydrocarbazol-9-yl)-N-hydroxyhexanamide] | 152.8 | 1.9 | 0.284
CN1CCN(CC2C(=O)c3c(n(Cc4ccc(C(=O)NO)cc4)c4ccc(F)cc34)CC2(C)C)CC1 (stereo not drawn) [Compound 209, 4-((6-fluoro-2,2-dimethyl-3-((4-methylpiperazin-1-yl)methyl)-4-oxo-1,2,3,4-tetrahydrocarbazol-9-yl)methyl)-N-hydroxybenzamide] | 148.8 | 2.5 | 0.365
Cc1c2c(n(Cc3ccc(C(=O)NO)cc3)c1C)CCCC2=O [Compound 220, 4-((2,3-dimethyl-4-oxo-4,5,6,7-tetrahydroindol-1-yl)methyl)-N-hydroxybenzamide] | 643.1 | 4.39 | 2.82
O=C(NO)c1ccc(Cn2c3c(c4ccccc42)C(=O)NCC3)cc1 [Compound 228, N-hydroxy-4-((1-oxo-1,2,3,4-tetrahydropyrido[4,3-b]indol-5-yl)methyl)benzamide] | 208.3 | 16.9 | 3.53
Cc1cn(Cc2ccc(C(=O)NO)cc2)c2c1C(=O)NCC2 [Compound 232, N-hydroxy-4-((3-methyl-4-oxo-4,5,6,7-tetrahydropyrrolo[3,2-c]pyridin-1-yl)methyl)benzamide] | 107.4 | 45 | 4.84
Cc1c2c(n(CCCCCC(=O)NO)c1C)CCCC2=O [Compound 235, 6-(2,3-dimethyl-4-oxo-4,5,6,7-tetrahydroindol-1-yl)-N-hydroxyhexanamide] | 34.9 | 37.5 | 1.31
Cc1c2c(n(Cc3ccc(C(=O)NO)cc3)c1C)CC(C)(C)CC2=O [Compound 236, N-hydroxy-4-((2,3,6,6-tetramethyl-4-oxo-4,5,6,7-tetrahydro-1H-indol-1-yl)methyl)benzamide] | 479.4 | 10.7 | 5.11
Cc1cn(Cc2ccc(C(=O)NO)cc2)c2c1C(=O)N(CCN1CCOCC1)CC2 [Compound 250, N-hydroxy-4-((3-methyl-5-(2-morpholinoethyl)-4-oxo-4,5,6,7-tetrahydropyrrolo[3,2-c]pyridin-1-yl)methyl)benzamide] | 20.5 | 133 | 2.72
CN1CCN(CCN2CCc3c(c4ccccc4n3Cc3ccc(C(=O)NO)cc3)C2=O)CC1 [Compound 251, N-hydroxy-4-((2-(2-(4-methylpiperazin-1-yl)ethyl)-1-oxo-1,2,3,4-tetrahydropyrido[4,3-b]indol-5-yl)methyl)benzamide] | 820.3 | 1.77 | 1.45
O=C(NO)c1ccc(Cn2c3c(c4cc(F)ccc42)C(=O)N(CCN2CCOCC2)CC3)cc1 [Compound 266] | 2851 | 1.02 | 2.91
O=C(NO)c1ccc(Cn2c3c(c4ccccc42)C(=O)N(CCN2CCC[C@H]2CO)CC3)cc1 [Compound 267, (S)—N-hydroxy-4-((2-(2-(2-(hydroxymethyl)pyrrolidin-1-yl)ethyl)-1-oxo-1,2,3,4-tetrahydropyrido[4,3-b]indol-5-yl)methyl)benzamide] | 678.8 | 3.35 | 2.27
Cc1c2c(n(Cc3ccc(C(=O)NO)cc3)c1C)CCC(CN1CCOCC1)C2=O (stereo not drawn) [Compound 268, 4-((2,3-dimethyl-5-(morpholinomethyl)-4-oxo-4,5,6,7-tetrahydroindol-1-yl)methyl)-N-hydroxybenzamide] | 448.4 | 13.5 | 6.05
O=C(NO)c1ccc(Cn2c3c(c4cc(F)ccc42)C(=O)C(CN2CC[C@@H](F)C2)CC3)cc1 (stereo partly drawn) [Compound 283, 4-((6-fluoro-3-(((R)-3-fluoropyrrolidin-1-yl)methyl)-4-oxo-1,2,3,4-tetrahydrocarbazol-9-yl)methyl)-N-hydroxybenzamide] | 1420.6 | 8.29 | 11.8
COCCN1CCN(CC2CCc3c(c4cc(F)ccc4n3Cc3ccc(C(=O)NO)cc3)C2=O)CC1 (stereo not drawn) [Compound 284, 4-((6-fluoro-3-((4-(2-methoxyethyl)piperazin-1-yl)methyl)-4-oxo-1,2,3,4-tetrahydrocarbazol-9-yl)methyl)-N-hydroxybenzamide] | 1435.7 | 7.47 | 10.7
COC[C@@H]1CCCN1CCN1CCc2c(c3cc(F)ccc3n2Cc2ccc(C(=O)NO)cc2)C1=O [Compound 285, (S)-4-((8-fluoro-2-(2-(2-(methoxymethyl)pyrrolidin-1-yl)ethyl)-1-oxo-1,2,3,4-tetrahydropyrido[4,3-b]indol-5-yl)methyl)-N-hydroxybenzamide] | 588.2 | 22.5 | 13.2
O=C(NO)c1ccc(Cn2c3c(c4cc(F)ccc42)C(=O)N(CCN2CCC(CO)CC2)CC3)cc1 [Compound 286, 4-((8-fluoro-2-(2-(4-(hydroxymethyl)piperidin-1-yl)ethyl)-1-oxo-1,2,3,4-tetrahydropyrido[4,3-b]indol-5-yl)methyl)-N-hydroxybenzamide] | 607 | 17.4 | 10.6
CN1CCN(CCN2CCc3c(c4cc(F)ccc4n3Cc3ccc(C(=O)NO)cc3)C2=O)CC1 [Compound 287, 4-((8-fluoro-2-(2-(4-methylpiperazin-1-yl)ethyl)-1-oxo-1,2,3,4-tetrahydropyrido[4,3-b]indol-5-yl)methyl)-N-hydroxybenzamide] | 715.1 | 11.5 | 8.2
O=C(NO)c1ccc(Cn2c3c(c4cc(F)ccc42)C(=O)N(CCN2CCN(CCO)CC2)CC3)cc1 [Compound 288, 4-((8-fluoro-2-(2-(4-(2-hydroxyethyl)piperazin-1-yl)ethyl)-1-oxo-1,2,3,4-tetrahydropyrido[4,3-b]indol-5-yl)methyl)-N-hydroxybenzamide] | 708.9 | 10.6 | 7.51
